Data set [1] is described as follows: 1-octanol-aqueous buffer distribution coefficient, log D of the compound at pH 7.4. The format is physicochemical.
The nature of data set [2]: Apparent permeability across apical to basolateral side in human Caco2 cells at pH 7.4. The format is ADME, cell-based. The note with it: Caco-2, pH 7.4. A general note: Caco-2 cells form a polarised layer with tight junctions and transporters.
Data set [3] can be described thus: Apparent permeability across basolateral to apical side in human Caco2 cells at pH 7.4. The format is ADME, cell-based. To be noted: Caco-2, pH 7.4.
Data set [4] in a line: Drug absorption in po dosed hamster. The format is ADME, organism-based. To be noted: cricetinae, in vivo.
Data set [5] in a line: Volume of distribution at steady state in iv dosed dog. The format is ADME, organism-based, Canis lupus familiaris. To be noted: in vivo, read-out: Vdss.
Data set [6] can be described thus: Drug absorption in po dosed rat. The format is ADME, organism-based. The note with it: in vivo.
Data set [7] can be described thus: Drug absorption in po dosed mouse. To be noted: in vivo. The format is ADME, organism-based.
Data set [8] in a line: Oral bioavailability in Harlan-Han Wistar rat. The format is ADME, organism-based. To be noted: in vivo.
Data set [9] is described as follows: Apparent permeability in rat jejunum. The format is ADME, tissue-based.
Data set [10] can be described thus: Oral bioavailability in dog. To be noted: in vivo. The format is ADME, organism-based, Canis lupus familiaris.
Data set [11] is described as follows: Volume of distribution at steady state in iv dosed Harlan-Han Wistar rat. To be noted: in vivo, read-out: Vdss. The format is ADME, organism-based.
Data set [12] can be described thus: Apparent permeability in human jejunum. The format is ADME, tissue-based.

32 compounds from ChEMBL document CHEMBL4622972 (J Med Chem, 2020) can be followed below.

Each structure is given as a SMILES string. A value given as a limit tells only on which side of the number the result lay.

Turning to `Cc1ccc2[nH]c(C(=O)N[C@H]3CN(S(=O)(=O)c4ccnnc4)C[C@@H]3C(=O)NCCN(C)C)cc2c1`, the pH-dependent lipophilicity (logD) in data set [1] worked out at 0.7.

For `Cc1ccc2[nH]c(C(=O)N[C@H]3CN(S(=O)(=O)c4ccccc4)C[C@@H]3C(=O)NC[C@@H]3CCCN3C)cc2c1`, the Papp A→B in [2] worked out at 0.24 ×10⁻⁶ cm/s. For the same compound, the apparent permeability from basolateral to apical (Papp B→A) in data set [3] was 19.3 ×10⁻⁶ cm/s. In data set [1], this compound came in with a logD of 2.3. In data set [1], `Cc1ccc2[nH]c(C(=O)N[C@H]3CN(S(=O)(=O)c4ccnc(C)c4)C[C@@H]3C(=O)NCCN(C)C)cc2c1` registered a logD of 1.7. Still for that read-out and setting: the same measure for `Cc1ccc2[nH]c(C(=O)N[C@H]3CN(S(=O)(=O)c4cnccn4)C[C@@H]3C(=O)NCCN(C)C)cc2c1`: 1.

In turn, `Cc1ccc2[nH]c(C(=O)N[C@H]3CCN(S(=O)(=O)N4CCCCC4)C[C@@H]3C(=O)NCCN(C)C)cc2c1` showed a log distribution coefficient (logD) in data set [1] of 2.3.

In the case of `Cc1ccc2[nH]c(C(=O)N[C@H]3CN(S(=O)(=O)c4ccccc4)C[C@@H]3C(=O)NCCN(C)C)cc2c1`, the log distribution coefficient (logD) in data set [1] was 2.1. For the compound `Cc1ccc2[nH]c(C(=O)N[C@H]3CCN(S(=O)(=O)c4ccccc4Cl)C[C@@H]3C(=O)N[C@H]3CCCNC3)cc2c1`, in data set [2], the Papp A→B is below 0.01 ×10⁻⁶ cm/s. In addition, in data set [3], the Papp B→A came to 1.4 ×10⁻⁶ cm/s. The compound also registered a logD in [1] of 1.9. On to `O=C(N[C@H]1CN(S(=O)(=O)c2ccccc2)C[C@@H]1C(=O)N[C@H]1CCCNC1)c1cc(-c2ccccc2Cl)on1`, for which the Drug absorption result in data set [4], in [6] and in data set [7] was “Not Active” each time. The Vd was determined as 6.6 L/kg in [5] and 5.5 L/kg in [11]. In addition, the bioavailability was below 1% in [8] and 40% in data set [10]. For the same compound, the apparent permeability coefficient (Papp) in data set [9] and in data set [12] was below 1 ×10⁻⁶ cm/s in each case. Further, the apical-to-basolateral permeability (Papp A→B) in data set [2] amounted to 0.31 ×10⁻⁶ cm/s. Besides, the log distribution coefficient (logD) in [1] stood at 1.9. As for `Cc1ccc2[nH]c(C(=O)N[C@H]3CN(S(=O)(=O)c4ccccc4)C[C@@H]3C(=O)N[C@H]3CCCN(C)C3)cc2c1`, the apical-to-basolateral permeability (Papp A→B) in [2] stood at 0.3 ×10⁻⁶ cm/s. Further, the basolateral-to-apical permeability (Papp B→A) in [3] was found to be 16.3 ×10⁻⁶ cm/s. In data set [1], this compound registered a logD of 2.7.

Consider `Cc1ccc2[nH]c(C(=O)N[C@H]3Cc4ccccc4[C@@H]3C(=O)NCCN(C)C)cc2c1`, for which the logD in [1] was found to be 2.4. On the same count and under the same terms, the figure for `Cc1ccc2[nH]c(C(=O)N[C@H]3CN(S(=O)(=O)C4CCOCC4)C[C@@H]3C(=O)NCCN(C)C)cc2c1` is 1.

As to `Cc1ccc2[nH]c(C(=O)N[C@H]3CN(S(=O)(=O)c4ccccc4)C[C@@H]3C(=O)N[C@@H]3CCCN(C)C3)cc2c1`, the Papp A→B in data set [2] was 0.76 ×10⁻⁶ cm/s. In data set [3], the apparent permeability from basolateral to apical (Papp B→A) turned out to be 22.8 ×10⁻⁶ cm/s. For the same compound, in [1], the log distribution coefficient (logD) was found to be 2.7. With `Cc1ccc2[nH]c(C(=O)N[C@H]3CCN(S(=O)(=O)N(C)C)C[C@@H]3C(=O)NCCN(C)C)cc2c1`, in [1], the log distribution coefficient (logD) stood at 1.2. Consider `Cc1ccc2[nH]c(C(=O)N[C@H]3CCN(S(=O)(=O)c4ccccc4Cl)C[C@@H]3C(=O)N[C@H]3CCCN(C)C3)cc2c1`, for which the Papp A→B in data set [2] turned out to be 0.27 ×10⁻⁶ cm/s. Also, in data set [3], the Papp B→A is 15.9 ×10⁻⁶ cm/s. The same compound returned a logD in data set [1] of 3.1. For `Cc1ccc2[nH]c(C(=O)N[C@H]3CN(S(=O)(=O)c4cccnc4)C[C@@H]3C(=O)NCCN(C)C)cc2c1`, in data set [1], the log distribution coefficient (logD) was determined as 1.4.

For `Cc1ccc2[nH]c(C(=O)N[C@H]3CN(S(=O)(=O)c4cn(C)nc4C)C[C@@H]3C(=O)NCCN(C)C)cc2c1`, the logD in data set [1] was found to be 1.4. For `Cc1ccc2[nH]c(C(=O)N[C@H]3CN(S(=O)(=O)c4ccccc4)C[C@@H]3C(=O)NC[C@H]3CCCN3C)cc2c1`, the Papp A→B in data set [2] came to 0.08 ×10⁻⁶ cm/s. The Papp B→A in [3] came out at 2.7 ×10⁻⁶ cm/s. For the same compound, in data set [1], the pH-dependent lipophilicity (logD) came to 2.3. In the same order, the values of `Cc1ccc2[nH]c(C(=O)N[C@H]3CN(S(=O)(=O)c4ccccc4)C[C@@H]3C(=O)NC[C@H]3CCCN3)cc2c1` are 0.11 ×10⁻⁶ cm/s, 15.9 ×10⁻⁶ cm/s and 1.

Regarding `Cc1csc(C(=O)N[C@H]2CN(S(=O)(=O)c3ccccc3)C[C@@H]2C(=O)N[C@H]2CCCNC2)n1`, the Papp A→B in data set [2] amounted to 0.18 ×10⁻⁶ cm/s. The logD in data set [1] turned out to be 0.1.

For the compound `Cc1ccc2[nH]c(C(=O)N[C@H]3CCN(S(=O)(=O)c4ccccc4)C[C@@H]3C(=O)NCCN(C)C)cc2c1`, in [1], the logD is 2.2 to 2.3. With `Cc1ccc2[nH]c(C(=O)N[C@H]3CN(S(=O)(=O)c4ccccc4)C[C@@H]3C(=O)N[C@H]3CCCNC3)cc2c1`, the apical-to-basolateral permeability (Papp A→B) in data set [2] is 0.04 ×10⁻⁶ cm/s. For the same compound, the Papp B→A in data set [3] came out at 2 ×10⁻⁶ cm/s. Further, the logD in [1] amounted to 1.3.

As to `Cc1ccc2[nH]c(C(=O)N[C@@H]3CCN(S(=O)(=O)c4ccccc4)C[C@H]3C(=O)NCCN(C)C)cc2c1`, in [1], the logD was 2.3. The compound `Cc1ccc2[nH]c(C(=O)N[C@@H]3CN(S(=O)(=O)c4ccccc4)C[C@H]3C(=O)NCCN(C)C)cc2c1` registered a logD in data set [1] of 2.1. Consider `Cc1ccc2[nH]c(C(=O)N[C@H]3CN(S(=O)(=O)c4ccccc4)C[C@@H]3C(=O)N[C@@H]3CCCNC3)cc2c1`, for which the apparent permeability from apical to basolateral (Papp A→B) in data set [2] was found to be 0.04 ×10⁻⁶ cm/s. Besides, in data set [3], the Papp B→A is 1.6 ×10⁻⁶ cm/s. The logD in data set [1] came out at 1.3.

Take `Cc1ccc2[nH]c(C(=O)N[C@H]3CCN(S(=O)(=O)C4CC4)C[C@@H]3C(=O)NCCN(C)C)cc2c1`: the logD in data set [1] came to 1. Same read-out and setting: the same measure for `Cc1ccc2[nH]c(C(=O)N[C@H]3CCN(S(=O)(=O)N4CCOCC4)C[C@@H]3C(=O)NCCN(C)C)cc2c1` (racemic): 1; for `Cc1ccc2[nH]c(C(=O)N[C@H]3CCN(S(=O)(=O)c4cccnc4)C[C@@H]3C(=O)NCCN(C)C)cc2c1` (racemic): 1.3; for `Cc1ccc2[nH]c(C(=O)N[C@H]3CCN(C(=O)c4cccnc4)C[C@@H]3C(=O)NCCN(C)C)cc2c1` (racemic): 0.7. Still for that read-out and setting: the same measure for `Cc1ccc2[nH]c(C(=O)N[C@H]3CN(S(=O)(=O)c4ccccc4)C[C@H]3C(=O)NCCN(C)C)cc2c1` (racemic): 2.3; for `Cc1ccc2[nH]c(C(=O)N[C@H]3CN(S(=O)(=O)c4ccccc4)CC[C@H]3C(=O)NCCN(C)C)cc2c1` (racemic): 1.9; for `Cc1ccc2[nH]c(C(=O)N[C@@H]3CCN(S(=O)(=O)c4ccccc4)C[C@@H]3C(=O)NCCN(C)C)cc2c1` (racemic): 2.1. Still for that read-out and setting: the figure for `Cc1ccc2[nH]c(C(=O)N[C@H]3CN(S(=O)(=O)c4ccccc4)CC[C@@H]3C(=O)NCCN(C)C)cc2c1` (racemic) is 1.9.

As a reminder, the logD is lipophilicity at a set pH, counting ionised and neutral species. A lower logD goes with lower lipophilicity. The term Papp A→B denotes how fast a substance crosses the layer from the apical side. One may read the Papp B→A as the apparent permeability from the basolateral to the apical side of a cell layer. The term bioavailability denotes dose-corrected exposure relative to a reference, in per cent. Higher therefore signals good availability. A word on the Papp: it is the rate of passage across a membrane or cell layer, normalised by area and donor concentration.
